Measurements published in PMC13308190, “Endothelial progenitor cell susceptibility to DNA damaging and DDR-modulating compounds determines endothelial differentiation accuracy” (Stem Cell Research & Therapy, 2026).

Columns and labels:
Assay type in all cases: cell-based, mouse
mESC [1] = test: DNA fiber spreading assay; conditions: mESC 24 h; HU: 5 mM, 1 h
Method: (§1) To analyze DNA replication fork progression, the DNA fiber spreading assay was performed. Briefly, cells were pulse-labeled with 20 µM CldU (20 min, 37 °C, 5% C0_2) and immediately afterwards with 200 µM IdU (20 min, 37 °C, 5% C02). Cell suspension was applied onto glass slides followed by cell lysis (0.5% SDS, 200 mM Tris–HCl, 50 mM EDTA). After incubation (6 min, RT), slides were tilted upwards to stretch the fibers, dried 6 min lying horizontally flat and fixed (5 min, RT) in methanol: acetic acid (3:1). After drying (7 min, lying horizontally flat) slides were stored overnight in 70% ethanol (4 °C). The next day samples were incubated in 100% methanol (5 min, RT) followed by denaturation in 2.5 M HCl (1 h, RT) and blocking (5% BSA in PBS, 1 h, 37 °C). DNA Fibers were stained with rat anti-BrdU (1:40) for CldU detection and mouse anti-BrdU (1:70) for IdU detection (in 0.5% BSA/PBS; 1 h, RT). After washing (0.05% Tween 20 in PBS and PBS) incubation with secondary antibodies anti-rat 488 (1:400) and anti-mouse 555 (1:250) was performed (1 h, RT, 0.5% BSA in PBS). Following washing with 0.05% Tween 20 in PBS and PBS, the slides were mounted with Fluoroshield (Sigma [Steinheim, Germany]). DNA fibers were analyzed microscopically (Olympus BX43 fluorescence microscope [40 objective]). The length of CldU (green) and IdU (red) tract was measured using ImageJ software, analyzing 200 fibers per experimental condition.

EC d4 = test: DNA fiber spreading assay; conditions: EC d4 48 h; HU: 5 mM, 1 h
Method: as §1

EC d6 = test: DNA fiber spreading assay; conditions: EC d6 24 h; HU: 5 mM, 1 h
Method: as §1

mESC [2] = test: Western blot protein expression (densitometry); conditions: mESC 24 h
Method: (§2) Total protein cell extracts were obtained upon sonication in RIPA buffer (EpiShearTM Probe sonicator, Active Motif [La Hulpe, Belgium]). Protein concentrations were determined using the DC Protein Assay (BioRad [Munich, Germany]). Extracts were supplemented with Roti®-Load buffer (Carl Roth GmbH [Karlsruhe, Germany]) followed by heating (95 °C for 5 min). 20 µg of protein was separated by SDS-PAGE and transferred onto nitrocellulose membrane. After blocking (5% non-fat milk in TBS/0.1% Tween 20 or 5% BSA in TBS/0.1% Tween 20) (1 h, RT) membrane was incubated with primary antibodies (1:500–5000; overnight, 4 °C). After washing with TBS/0.1% Tween 20, peroxidase-conjugated secondary antibody (1:2000) was added (2 h, RT) and bands were visualized using ChemiDoxTM Touch imaging system (BioRad, Munich, Germany).

[3] = system: EC d6 (endothelial-like cells); test: Western blot protein expression (densitometry); conditions: EC d6 24 h
Method: as §2

[4] = system: EC d4 (endothelial progenitor cells); test: Western blot protein expression (densitometry); conditions: EC d4 48 h
Method: as §2

With `NC(=O)NO` [HU, Hydroxyurea] the replication fork progression (mESC [1]) was “decreased replication fork speed”, the replication fork progression (EC d4) was “decreased replication fork speed” and the replication fork progression (EC d6) was “decreased replication fork speed”.
For `COc1cc([C@@H]2c3cc4c(cc3[C@@H](O[C@@H]3O[C@@H]5CO[C@@H](C)O[C@H]5[C@H](O)[C@H]3O)[C@H]3COC(=O)[C@H]23)OCO4)cc(OC)c1O` [Eto, etoposide], the CHK1 protein (mESC [2]; Eto lane of blot Fig 5D - B02) was 0.9 Fold of mESC, the RAD51 protein (mESC [2]; Eto lane of blot Fig 5D - B02) was 1.9 Fold of mESC and the p-CHK2 protein (mESC [2]; Eto lane of blot Fig 5D - B02) was 0.8 Fold of mESC. For the same molecule, the p-KAP1 protein (mESC [2]; Eto lane of blot Fig 5D - B02) was 49.01 Fold of mESC, the p-RPA32 protein (mESC [2]; Eto lane of blot Fig 5D - B02) was 0.7 Fold of mESC and the p-p53 protein (mESC [2]; Eto lane of blot Fig 5D - B02) was 2.1 Fold of mESC. The CHK1 protein (mESC [2]; Eto lane of blot Fig 5D - Dox) was 2.4 Fold of mESC, the RAD51 protein (mESC [2]; Eto lane of blot Fig 5D - Dox) was 1.9 Fold of mESC and the p-CHK2 protein (mESC [2]; Eto lane of blot Fig 5D - Dox) was 1.6 Fold of mESC. For the same molecule, the p-KAP1 protein (mESC [2]; Eto lane of blot Fig 5D - Dox) was 29.7 Fold of mESC, the p-RPA32 protein (mESC [2]; Eto lane of blot Fig 5D - Dox) was 1.6 Fold of mESC and the p-p53 protein (mESC [2]; Eto lane of blot Fig 5D - Dox) was 6.9 Fold of mESC. The CHK1 protein (mESC [2]; Eto lane of blot Fig 5D - EST) was 1.3 Fold of mESC, the RAD51 protein (mESC [2]; Eto lane of blot Fig 5D - EST) was 2.4 Fold of mESC and the p-CHK2 protein (mESC [2]; Eto lane of blot Fig 5D - EST) was 1.3 Fold of mESC. The p-KAP1 protein (mESC [2]; Eto lane of blot Fig 5D - EST) was 36.8 Fold of mESC, the p-RPA32 protein (mESC [2]; Eto lane of blot Fig 5D - EST) was 1.0 Fold of mESC and the p-p53 protein (mESC [2]; Eto lane of blot Fig 5D - EST) was 3.7 Fold of mESC. The CHK1 protein (mESC [2]; Fig 4H, Eto, Dox 1, B02, EST) was 1.0 Fold of mESC, the p-ATR protein (mESC [2]; Fig 4H, Eto, Dox 1, B02, EST) was 1.6 Fold of mESC and the p-CHK1 protein (mESC [2]; Fig 4H, Eto, Dox 1, B02, EST) was 2.3 Fold of mESC. For the same molecule, the p-RPA32 protein (mESC [2]; Fig 4H, Eto, Dox 1, B02, EST) was 1.2 Fold of mESC, the p-p53 protein (mESC [2]; Fig 4H, Eto, Dox 1, B02, EST) was 6.1 Fold of mESC and the CHK1 protein ([3]; Eto lane of blot Fig 5D - B02) was 0.37 Fold of mESC. For the same molecule, the RAD51 protein ([3]; Eto lane of blot Fig 5D - B02) was 0.38 Fold of mESC, the p-CHK2 protein ([3]; Eto lane of blot Fig 5D - B02) was 0.04 Fold of mESC and the p-KAP1 protein ([3]; Eto lane of blot Fig 5D - B02) was 0.00 Fold of mESC. The p-RPA32 protein ([3]; Eto lane of blot Fig 5D - B02) was 0.04 Fold of mESC, the p-p53 protein ([3]; Eto lane of blot Fig 5D - B02) was 1.45 Fold of mESC and the CHK1 protein ([3]; Eto lane of blot Fig 5D - Dox) was 0.6 Fold of mESC. The RAD51 protein ([3]; Eto lane of blot Fig 5D - Dox) was 0.8 Fold of mESC, the p-CHK2 protein ([3]; Eto lane of blot Fig 5D - Dox) was 0.2 Fold of mESC and the p-KAP1 protein ([3]; Eto lane of blot Fig 5D - Dox) was 0.0 Fold of mESC. The p-RPA32 protein ([3]; Eto lane of blot Fig 5D - Dox) was 0.1 Fold of mESC, the p-p53 protein ([3]; Eto lane of blot Fig 5D - Dox) was 3.7 Fold of mESC and the CHK1 protein ([3]; Eto lane of blot Fig 5D - EST) was 0.1 Fold of mESC. The RAD51 protein ([3]; Eto lane of blot Fig 5D - EST) was 0.5 Fold of mESC, the p-CHK2 protein ([3]; Eto lane of blot Fig 5D - EST) was 0.4 Fold of mESC and the p-KAP1 protein ([3]; Eto lane of blot Fig 5D - EST) was 0.0 Fold of mESC. For the same molecule, the p-RPA32 protein ([3]; Eto lane of blot Fig 5D - EST) was < 0.1 Fold of mESC, the p-p53 protein ([3]; Eto lane of blot Fig 5D - EST) was 2.0 Fold of mESC and the CHK1 protein ([4]; Eto lane of blot Fig 5D - B02) was 0.7 Fold of mESC. The RAD51 protein ([4]; Eto lane of blot Fig 5D - B02) was 1.0 Fold of mESC, the p-CHK2 protein ([4]; Eto lane of blot Fig 5D - B02) was 0.4 Fold of mESC and the p-KAP1 protein ([4]; Eto lane of blot Fig 5D - B02) was 0.0 Fold of mESC. For the same molecule, the p-RPA32 protein ([4]; Eto lane of blot Fig 5D - B02) was 0.4 Fold of mESC, the p-p53 protein ([4]; Eto lane of blot Fig 5D - B02) was 1.7 Fold of mESC and the CHK1 protein ([4]; Eto lane of blot Fig 5D - Dox) was 1.6 Fold of mESC. The RAD51 protein ([4]; Eto lane of blot Fig 5D - Dox) was 0.1 Fold of mESC, the p-CHK2 protein ([4]; Eto lane of blot Fig 5D - Dox) was 0.5 Fold of mESC and the p-KAP1 protein ([4]; Eto lane of blot Fig 5D - Dox) was 0.0 Fold of mESC. For the same molecule, the p-RPA32 protein ([4]; Eto lane of blot Fig 5D - Dox) was 0.5 Fold of mESC, the p-p53 protein ([4]; Eto lane of blot Fig 5D - Dox) was 4.8 Fold of mESC and the CHK1 protein ([4]; Eto lane of blot Fig 5D - EST) was 0.7 Fold of mESC. The RAD51 protein ([4]; Eto lane of blot Fig 5D - EST) was 1.2 Fold of mESC, the p-CHK2 protein ([4]; Eto lane of blot Fig 5D - EST) was 1.2 Fold of mESC and the p-KAP1 protein ([4]; Eto lane of blot Fig 5D - EST) was 0.0 Fold of mESC. For the same molecule, the p-RPA32 protein ([4]; Eto lane of blot Fig 5D - EST) was 0.4 Fold of mESC and the p-p53 protein ([4]; Eto lane of blot Fig 5D - EST) was 3.0 Fold of mESC.
